# US20200206187A1, “SCREENING PLATFORM TO IDENTIFY THERAPEUTIC DRUGS OR AGENTS FOR TREATMENT OF ALZHEIMER'S DISEASE” (priority 2017, published 2020)
# pEC50: −log10 of the molar value. “Also recorded” adds a separate entry of the source.
# Assays:
# Assay type in all cases: cell-based, murine
# [1] = test system: wtCD33-expressing microglial cells; test: LDH toxicity assay (CytoTox-ONE) on wtCD33-expressing microglial cells; conditions: 5 hours of treatment (FIG. 2)
# Protocol: (§1) As shown in the figures, compounds were selected and tested in microglial and 3D AD cell culture models at a range of concentrations, and over a period of time ranging from hours to days. The culture models were chosen to elucidate different stages and biological aspects of Alzheimer's disease. The toxicity of the compounds was assessed analyzing the cultures media with the commercially available assay (CytoTox-ONE™, Promega) that measures the release of LDH. Toxic concentrations were excluded from further testing. For microglial cultures, Aβ42 and Aβ40 uptake assays were carried forward for 2 to 24 hours following 3 hours of compound pre-treatment. The experimental outcomes were determined by measuring increased internalized Aβ42 and Aβ40 levels by a commercially available ELISA assay (Wako Abeta42 ELISA kit). Alternatively, LPS-activation assays were carried forward for 3 h following 3 hours of compound pre-treatment. The reduction of toxic cytokines released in the culture media was monitored.
# (§2) Naïve BV2 Cells, or BV2 stably expressing wt-CD33, were seeded in 24-well plates at the density of 2.5×10E5 cells for BV2 and 4×10E5 cells for wt-CD33 clone, in proliferating media. On the following day, cells were treated with compounds, or DMSO as a control, at different concentrations in proliferating media for 3 hours. For Abeta42 and Abeta40 uptake assays, cells were washed twice with 500 μL/well of PBS and treated with compounds/DMSO in the presence of 300 nM Abeta peptide in DMEM media for 2 hours. At the end of the 2 hour incubation, 150 μL of media were collected from the 24-well plates. They were centrifuged at 4° C., 2500 rpm for 10 min, transferred to new plates and used to assess compounds toxicity with CytoTox-ONE™ (LDH) assay. […] Protein concentrations in the lysate supernatants were determined with the Pierce™ BCA protein assay kit. 2-3 μg/well of protein from the lysates was analyzed for Abeta42 uptake using the Wako Abeta42 ELISA kit. […]
# [2] = test system: wt-CD33 expressing BV2 cells; test: Abeta42 uptake assay into wt-CD33 expressing BV2 cells (Wako Abeta42 ELISA); conditions: wt-CD33 expressing BV2, 3 h pre-treatment, 300 nM Abeta42 for 2 h (FIG. 4)
# Protocol: as §1
# (§3) Naïve BV2 Cells, or BV2 stably expressing wt-CD33, were seeded in 24-well plates at the density of 2.5×10E5 cells for BV2 and 4×10E5 cells for wt-CD33 clone, in proliferating media. […] Protein concentrations in the lysate supernatants were determined with the Pierce™ BCA protein assay kit. 2-3 μg/well of protein from the lysates was analyzed for Abeta42 uptake using the Wako Abeta42 ELISA kit. […]
# [3] = test system: naïve BV2 microglial cells; test: LDH toxicity assay (CytoTox-ONE) on naïve BV2 microglial cells; conditions: 5 hours of treatment (FIG. 1)
# Protocol: as §1, §2
# [4] = test system: naïve BV2 microglial cells; test: Abeta40 uptake assay into naïve BV2 microglial cells (Cisbio Abeta40 HTRF); conditions: naïve BV2, 3 h pre-treatment, 300 nM Abeta40 for 2 h (FIG. 5)
# Protocol: as §1, §3
# [5] = test system: naïve BV2 microglial cells; test: Abeta42 uptake assay into naïve BV2 microglial cells (Wako Abeta42 ELISA); conditions: naïve BV2, 3 h pre-treatment, 300 nM Abeta42 for 2 h (FIG. 3)
# Protocol: as §1, §3
# [6] = test system: wt-CD33 expressing BV2 cells; test: Abeta40 uptake assay into wt-CD33 expressing BV2 cells (Cisbio Abeta40 HTRF); conditions: wt-CD33 expressing BV2, 3 h pre-treatment, 300 nM Abeta40 for 2 h (FIG. 6)
# Protocol: as §1, §3
# [7] = test system: LPS-activated BV2 microglial cells; test: BV2 LPS activation cytokine assay (MSD Proinflammatory Panel 1); conditions: BV2, 1 μg/mL LPS 3 h, maleate
# Protocol: as §1
# For microglial activation experiments, cells were treated with compounds/DMSO in the presence of 1 μg/mL LPS in proliferating media for 3 hours. The media was collected, cleared of particulate and analyzed using MSD Proinflammatory Panel 1 cytokine assay kit.
# FIG. 7 tabulates the results from an LPS activation testing of microglial cells, showing that cytokines KC/GRO, IL-6, IL-10 and TNF-α were detectable upon LPS activation, although KC/GRO was only detectable in undiluted media. The 10 cytokines were simultaneously analyzed in microglial conditioned media. FIG. 8-15 show the results for an assay to test the effect of test compounds DMSO, 817MA, 817A11 and 614P on cytokines KC/GRO, IL-6, IL-10 and TNF-α. […] The two sequential assays determine which if any cytokines are detected upon LPS activation, followed by determination of the reduction in detectable cytokines upon treatment/exposure to a test compound.
# [8] = test system: naïve BV2 microglial cells; test: Abeta42 uptake assay in microglial cells, 24-hour pre-treatment protocol
# Protocol: (§4) The protocol used for 24-hour pre-treatment testing in microglial cells was as follows.
# (§5) On day zero the naïve BV2 microglial cells were seeded in proliferating media.
# (§6) On day one the cells were then treated with 817MA, or DMSO as a control, in proliferating media for 24 hours, at concentrations ranging from 0 to 50 μM.
# (§7) On day two the cells were then washed twice with PBS and treated with compounds/DMSO in the presence of 300 nM Abeta42 peptide in DMEM media for 2 hours. The compounds toxicity was assessed in the media collected at the end of the treatment with CytoTox-ONE™ (LDH) assay. The remaining cells were lysed with RIPA buffer supplemented with protease and phosphatase inhibitors. Protein concentrations were determined with the Pierce™ BCA protein assay kit. Normalized lysates were analyzed for Abeta42 uptake using the Wako Abeta42 ELISA kit.
# [9] = test system: naïve BV2 microglial cells; test: LDH toxicity assay in microglial cells, 24-hour pre-treatment protocol; conditions: 24 h pre-treatment (FIG. 25)
# Protocol: as §4, §5, §6, §7
SMILES,LDH toxicity [1],Abeta42 uptake EC50 (comparison between compounds) [2],LDH toxicity [3],Abeta40 uptake EC50 (comparison between compounds) [4],Abeta42 uptake EC50 (comparison between compounds) [5],Abeta40 uptake EC50 (comparison between compounds) [6],"TNFα production upon LPS activation ([7]; first and second experiment (FIG. 8, 9))","IL-6 production upon LPS activation ([7]; first and second experiment (FIG. 10, 11))","IL-10 production upon LPS activation ([7]; first and second experiment (FIG. 12, 13))","pEC50 ([8]; Mus musculus, BV-2, following 24 hours of compound pre-treatment (FIG. 26))","Abeta42 uptake versus DMSO control ([8]; above about 1 μM, 24 h pre-treatment (FIG. 26))",LDH toxicity compared to DMSO ([9]; at about 30 μM),LDH toxicity ([9]; below about 50 μM)
"CS(=O)(=O)Nc1cc2occ(NC=O)c(=O)c2cc1Oc1ccccc1 [Compound 614P, N-(3-formamido-4-oxo-6-phenoxy-4H-chromen-7-yl)]",No statistically significant toxicity,higher EC50,No statistically significant toxicity,higher EC50 than both 817MA and 817A11,higher EC50,higher EC50 than both 817MA and 817A11,–,–,–,–,–,–,–
"O=C(CCOCCc1ccc2sccc2c1)N1CC(O)C1 [Compound 817A11, 1-{3-[2-(1-benzothiophen-5-yl)ethoxy]propionyl}azetidin-3-ol]",No statistically significant toxicity,–,No statistically significant toxicity,lower EC50 Abeta40 uptake than 817MA treated cells,–,lower EC50 Abeta40 uptake than 817MA treated cells,–,–,–,–,–,–,–
"O=C(O)/C=C\C(=O)O.OC1CN(CCCOCCc2ccc3sccc3c2)C1 [Compound 817MA, 1-(3-(2-(1-benzothiophen-5-yl)ethoxy)propyl)azetidin-3-ol maleate]",No statistically significant toxicity,–,No statistically significant toxicity,–,–,–,reduced concentrations; also recorded: only compound effectively reducing TNFα production,reduced concentrations; also recorded: most effective compound for reducing IL-6 production,reduced concentrations; also recorded: most effective compound for reducing IL-10 production,~4.70,greater than the DMSO control,no statistically significant toxicity,low or no toxicity
